Experimental data: the NIST ThermoML archive (doi:10.1016/j.tca.2017.12.015)
± gives the expanded uncertainty stated by the source.

Details: for Normal melting temperature: Crystal 1, DTA

Row | SMILES | Normal melting temperature | Triple point temperature (Crystal 2, DSC)
1 | NCC(=O)O [2-aminoacetic acid] | 254.70 ± 2 °C | 
2 | OC[C@@H](O)[C@@H](O)[C@H](O)[C@@H](O)CO [D-sorbitol] | 99.70 ± 2 °C | 
3 | OC[C@H]1O[C@@](CO)(O[C@H]2O[C@H](CO)[C@@H](O)[C@H](O)[C@H]2O)[C@@H](O)[C@@H]1O [D-sucrose] | 190.90 ± 2 °C | 
4 | O=C[C@H](O)[C@@H](O)[C@H](O)[C@H](O)CO [D-glucose] | 162.10 ± 2 °C | 
5 | Cn1c(=O)c2c(ncn2C)n(C)c1=O [caffeine] | 236.20 ± 2 °C | 432.55 ± 6 K
